# Experimental data taken from patent publication US20140057915A1, “KINASE INHIBITORS” (TOPIVERT PHARMA LIMITED, priority 2012, published 2014).
# Where two headings read alike, the source gives them in different places.
# Experiments:
# [1] = test system: IL-8 release, d-U937 cells; assay: LPS-induced IL-8 release in d-U937 cells; assay type: cell-based; settings: Homo sapiens, dU937
# Summary of the method: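 IL-8 release after a 4 hr challenge with LPS (0.1 μg/mL, E. coli 0111:B4) following a 2 hr compound pretreatment. Cells were human U937 monocytes differentiated to macrophage-type with PMA 100 ng/mL for 48–72 hr. Relative 50% effective concentration derived from concentration–response data.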
# [2] = target: cSrc (Homo sapiens, UniProt P12931); assay: c-Src enzyme inhibition (FRET); assay type: biochemical
# Chain of cSrc (P12931 whole entry): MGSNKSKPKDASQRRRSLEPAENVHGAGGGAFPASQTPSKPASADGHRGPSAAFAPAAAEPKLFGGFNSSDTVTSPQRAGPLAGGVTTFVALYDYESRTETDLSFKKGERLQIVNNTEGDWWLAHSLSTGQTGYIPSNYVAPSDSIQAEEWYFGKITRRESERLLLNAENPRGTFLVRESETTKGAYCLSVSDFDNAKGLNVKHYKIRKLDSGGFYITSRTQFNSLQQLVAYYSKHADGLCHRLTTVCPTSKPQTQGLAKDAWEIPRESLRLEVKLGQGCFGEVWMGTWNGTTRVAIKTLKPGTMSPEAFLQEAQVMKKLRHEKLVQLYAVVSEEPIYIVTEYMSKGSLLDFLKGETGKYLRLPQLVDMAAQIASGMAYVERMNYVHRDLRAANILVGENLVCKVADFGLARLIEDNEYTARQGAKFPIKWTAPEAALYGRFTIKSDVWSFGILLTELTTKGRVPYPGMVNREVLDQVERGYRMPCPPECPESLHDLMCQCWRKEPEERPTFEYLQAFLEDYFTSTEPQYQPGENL
# Summary of the method: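 Enzyme was preincubated with test compound (added as 4, 0.4, 0.04 or 0.004 μg/mL solutions) for 2 hr at RT. FRET peptide (8 μM solution) and ATP solution (800 μM for c-Src, 60 μM for Syk) were then added for 1 hr, followed by 1 hr protease development.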
# [3] = test system: HRV16 in MRC5 cells; assay: HRV16 induced CPE in MRC5 cells; assay type: cell-based; settings: Human rhinovirus sp., HRV-16
# Method: (j) Assessment of HRV16 Induced CPE in MRC5 Cells
# MRC-5 cells are infected with HRV16 at an MOI of 1n DMEM containing 5% FCS and 1.5 mM magnesium chloride, followed by incubation for 1 hr at 33° C. to promote adsorption. The supernatants are aspirated, and then fresh media added followed by incubation for 4 days. Where appropriate, cells are pre-incubated with compound or DMSO for 2 hr, and the compounds and DMSO added again after washout of the virus.
# After washing, 1% SDS in distilled water (100 μL) is added to each well, and the plates are shaken lightly for 1-2 hr prior to reading the absorbance at 660 nm. The percentage inhibition for each well is calculated. The IC50 value is calculated from the concentration-response curve generated by the serial dilutions of the test compounds.
# [4] = test system: TNFα release, d-U937 cells; assay: LPS-induced TNFα release in d-U937 cells; assay type: cell-based; settings: Homo sapiens, dU937; for IC50: Table 4c2, different laboratory, read-out: IC50 Values for Inhibition of Cytokine Release, dU937 cells, TNFα; for EC50: relative to 10 μg/mL BIRB796, Table 4c1, read-out: LPS Induced Release of Cytokine in d-U937 Cells, TNFα REC50
# Summary of the method: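 U937 cells differentiated with PMA (100 ng/mL, 48–72 hr), pre-treated with compound for 2 hr, then stimulated with E. coli LPS (0.1 μg/mL) for 4 hr. Supernatant cytokine measured by sandwich ELISA; inhibition versus vehicle control, REC50 from concentration-response curve.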
# [5] = test system: PBMC cells; assay: Cell mitosis assay; assay type: cell-based; settings: Homo sapiens, read-out: % Inhibition of mitosis in PBMC cells at 5 μg/mL
# Summary of the method: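 Healthy-donor PBMCs (3 million cells per sample) stimulated with 2% PHA for 48 hr, then exposed 20 hr to varying compound concentrations. Demecolcine (0.1 μg/mL) added 2 hr before collection to arrest cells in metaphase; read by flow cytometry gated on lymphocytes.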
# [6] = target: GSK3α (Homo sapiens, UniProt P49840); assay: GSK 3α enzyme inhibition (FRET), Method 2; assay type: biochemical; settings: Table 4a2, different laboratory
# Chain of GSK3α (P49840 whole entry): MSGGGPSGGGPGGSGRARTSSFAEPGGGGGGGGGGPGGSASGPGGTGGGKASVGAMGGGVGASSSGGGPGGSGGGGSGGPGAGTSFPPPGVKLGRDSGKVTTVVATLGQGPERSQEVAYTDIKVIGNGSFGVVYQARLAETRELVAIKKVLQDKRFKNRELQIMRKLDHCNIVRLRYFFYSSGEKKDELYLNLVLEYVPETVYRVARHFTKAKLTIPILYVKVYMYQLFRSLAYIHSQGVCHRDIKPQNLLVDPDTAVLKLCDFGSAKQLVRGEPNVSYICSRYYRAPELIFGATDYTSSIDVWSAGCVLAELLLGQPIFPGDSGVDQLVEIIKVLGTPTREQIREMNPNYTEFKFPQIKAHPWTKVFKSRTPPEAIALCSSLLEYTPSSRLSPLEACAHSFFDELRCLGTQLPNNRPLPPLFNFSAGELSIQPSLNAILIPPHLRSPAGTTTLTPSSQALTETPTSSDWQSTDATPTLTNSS
# [7] = test system: IL-2 release, PBMCs; assay: IL-2 release in CD3/CD28 stimulated PBMC cells; assay type: cell-based; settings: Homo sapiens, read-out: IC50 Values for Inhibition of Cytokine Release, PBMCs, IL-2
# [8] = Table 4c1, read-out: LPS Induced Release of Cytokine in d-U937 Cells, IL-8 IC50
# [9] = Table 4c2, different laboratory, read-out: IC50 Values for Inhibition of Cytokine Release, dU937 cells, IL-8
# [10] = Table 4a2, different laboratory
SMILES,"IC50 [1, 8] [nM]","IC50 [1, 9] [nM]",IC50 ([2]; Table 4a1) [nM],"IC50 [2, 10] [nM]",IC50 [3] [nM],IC50 [4] [nM],EC50 [4] [nM],inhibition at 5 µg/mL [5] [%],IC50 [6] [nM],IC50 [7] [nM]
"COc1cc(Nc2cc(Oc3ccc(NC(=O)Nc4cc(C(C)(C)C)nn4-c4ccc(C)cc4)c4ccccc34)ccn2)cc(C(=O)NCCN2CCOCC2)c1 [Example 1, 3-((4-((4-(3-(3-(tert-Butyl)-1-(p-tolyl)-1H-pyrazol-5-yl)ureido)naphthalen-1-yl)oxy)pyridin-2-yl)amino)-5-methoxy-N-(2-morpholinoethyl)benzamide]",1.8,2.8,5,27,2.9,2.1,0.7,39.3,6970,84.3
"Cc1ccc(-n2nc(C(C)C)cc2NC(=O)Nc2ccc(Oc3ccnc(Nc4cc(C(=O)NCCN5CCOCC5)cc(C(F)(F)F)c4)n3)c3ccccc23)cc1 [Example 7, 3-((4-((4-(3-(3-isopropyl-1-(p-tolyl)-1H-pyrazol-5-yl)ureido)naphthalen-1-yl)oxy)pyrimidin-2-yl)amino)-N-(2-morpholinoethyl)-5-(trifluoromethyl)benzamide]",1.5,–,13,27,–,2.7,0.2,20.6,12100,260
"COc1cc(Nc2nccc(Oc3ccc(NC(=O)Nc4cc(C(C)C)nn4-c4ccc(C)cc4)c4ccccc34)n2)cc(C(=O)NCCN2CCOCC2)c1 [Example 8, 3-((4-((4-(3-(3-Isopropyl-1-(p-tolyl)-1H-pyrazol-5-yl)ureido)naphthalen-1-yl)oxy)pyrimidin-2-yl)amino)-5-methoxy-N-(2-morpholinoethyl)benzamide]",0.3,1.4,< 1,41,5.4,1.1,0.8,15.3,≥ 13200,35.3
COc1cc(Nc2nccc(Oc3ccc(NC(=O)Nc4cc(C(F)(F)C(F)(F)F)nn4-c4ccc(C)cc4)c4ccccc34)n2)cc(C(=O)NCCN2CCOCC2)c1 [Example 9],1.4,–,2,21,1.7,–,0.9,20.7,6510,132
"COCCNC(=O)c1cc(Nc2nccc(Oc3ccc(NC(=O)Nc4cc(C(C)C)nn4-c4ccc(OC)cc4)c4ccccc34)n2)cc(OC)c1 [Example 11, 3-((4-((4-(3-(3-Isopropyl-1-(4-methoxyphenyl)-1H-pyrazol-5-yl)ureido)naphthalen-1-yl)oxy)pyrimidin-2-yl)amino)-5-methoxy-N-(2-methoxyethyl)benzamide]",1.3,–,8,15,–,0.3,0.2,50.7,9950,27.5
"COc1ccc(-n2nc(C3(C)COC3)cc2NC(=O)Nc2ccc(Oc3ccnc(Nc4cccc(C(=O)NCCN5CCOCC5)c4)n3)c3ccccc23)cc1 [Example 23, 3-((4-((4-(3-(1-(4-methoxyphenyl)-3-(3-methyloxetan-3-yl)-1H-pyrazol-5-yl)ureido)naphthalen-1-yl)oxy)pyrimidin-2-yl)amino)-N-(2-morpholinoethyl)benzamide]",2.3,–,< 1,–,22.3,–,5.2,35.6,–,–
"COc1ccc(-n2nc(C(C)(C)C)cc2NC(=O)Nc2ccc(Oc3ccnc(Nc4cc(Br)cc(C(N)=O)c4)n3)c3ccccc23)cc1 [Example 42, 3-bromo-5-((4-((4-(3-(3-(tert-butyl)-1-(4-methoxyphenyl)-1H-pyrazol-5-yl)ureido)naphthalen-1-yl)oxy)pyrimidin-2-yl)amino)benzamide]",2,–,20,–,2.2,–,1.5,12.9,–,–
"C#Cc1cc(Nc2nccc(Oc3ccc(NC(=O)Nc4cc(C(C)C)nn4-c4ccc(C)cc4)c4ccccc34)n2)cc(C(=O)NCCN2CCOCC2)c1 [Example 46, 3-ethynyl-5-((4-((4-(3-(3-isopropyl-1-(p-tolyl)-1H-pyrazol-5-yl)ureido)naphthalen-1-yl)oxy)pyrimidin-2-yl)amino)-N-(2-morpholinoethyl)benzamide]",–,2.4,–,14,–,1.1,–,-6.7,11300,59.5
"COc1cc(Nc2nccc(Oc3ccc(NC(=O)Nc4cc(C5CC5)nn4-c4ccc(C)cc4)c4ccccc34)n2)cc(C(=O)NCCN2CCOCC2)c1 [Example 50, 3-((4-((4-(3-(3-cyclopropyl-1-(p-tolyl)-1H-pyrazol-5-yl)ureido)naphthalen-1-yl)oxy)pyrimidin-2-yl)amino)-5-methoxy-N-(2-morpholinoethyl)benzamide]",8,–,< 1,–,6.8,–,5.2,–,≥ 13300,–
"COc1cc(Nc2nccc(Oc3ccc(NC(=O)Nc4cc(C5(C)CC5)nn4-c4ccc(C)cc4)c4ccccc34)n2)cc(C(=O)NCCN2CCOCC2)c1 [Example 51, 3-methoxy-5-((4-((4-(3-(3-(1-methylcyclopropyl)-1-(p-tolyl)-1H-pyrazol-5-yl)ureido)naphthalen-1-yl)oxy)pyrimidin-2-yl)amino)-N-(2-morpholinoethyl)benzamide]",0.6,–,< 1,–,1.9,–,1,20,–,–
"COc1ccc(-n2nc(C(C)C)cc2NC(=O)Nc2ccc(Oc3ccnc(Nc4cc(OC)cc(C(=O)NCCN5CCOCC5)c4)n3)c3ccccc23)cc1 [Example 53, 3-((4-((4-(3-(3-isopropyl-1-(4-methoxyphenyl)-1H-pyrazol-5-yl)ureido)naphthalen-1-yl)oxy)pyrimidin-2-yl)amino)-5-methoxy-N-(2-morpholinoethyl)benzamide]",1.1,–,< 1,8,2,0.7,0.3,39.4,7260,44.1
"C#Cc1cc(Nc2nccc(Oc3ccc(NC(=O)Nc4cc(C(C)(C)C)nn4-c4ccc(OC)cc4)c4ccccc34)n2)cc(C(=O)NCCN2CCOCC2)c1 [Example 77, 3-((4-((4-(3-(3-(tert-Butyl)-1-(4-methoxyphenyl)-1H-pyrazol-5-yl)ureido)-naphthalen-1-yl)oxy)pyrimidin-2-yl)amino)-5-ethynyl-N-(2-morpholinoethyl)benzamide]",–,0.9,–,12,–,0.4,–,-0.3,5950,42.8
"C#Cc1cc(Nc2nccc(Oc3ccc(NC(=O)Nc4cc(C(C)(C)C)nn4-c4ccc(N(C)C)cc4)c4ccccc34)n2)cc(C(=O)NCCN2CCOCC2)c1 [Example 80, 3-((4-((4-(3-(3-(tert-Butyl)-1-(4-(dimethylamino)phenyl)-1H-pyrazol-5-yl)ureido)naphthalen-1-yl)oxy)pyrimidin-2-yl)amino)-5-ethynyl-N-(2-morpholinoethyl)-benzamide]",–,0.5,–,19,–,0.3,–,10.4,≥ 12600,2.3
